Target: T1, human PDE2A1 (Homo sapiens, UniProt O00408)
T1 construct: GST; purchased BPS Bioscience (San Diego, Calif.) 60020; host or cells: insect cells
Assay: IMAP FP PDE selectivity panel, human PDE2A1
Format: biochemical
Settings: Lab B; read-out: Human PDE2 Ki (nM) Lab B
Outline: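 IMAP FP read-out, run at room temperature in parallel with PDE1–11: enzyme at 20% substrate conversion, 50 nM FAM-cAMP containing 1000 nM cGMP, Tris pH 7.2/MgCl2/DTT buffer. Compounds as ten 3-fold dilutions. Reaction 60 min, stopped with binding reagent for 1 h before polarization measurement.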

T1 sequence (O00408 1-920 isoform O00408-2): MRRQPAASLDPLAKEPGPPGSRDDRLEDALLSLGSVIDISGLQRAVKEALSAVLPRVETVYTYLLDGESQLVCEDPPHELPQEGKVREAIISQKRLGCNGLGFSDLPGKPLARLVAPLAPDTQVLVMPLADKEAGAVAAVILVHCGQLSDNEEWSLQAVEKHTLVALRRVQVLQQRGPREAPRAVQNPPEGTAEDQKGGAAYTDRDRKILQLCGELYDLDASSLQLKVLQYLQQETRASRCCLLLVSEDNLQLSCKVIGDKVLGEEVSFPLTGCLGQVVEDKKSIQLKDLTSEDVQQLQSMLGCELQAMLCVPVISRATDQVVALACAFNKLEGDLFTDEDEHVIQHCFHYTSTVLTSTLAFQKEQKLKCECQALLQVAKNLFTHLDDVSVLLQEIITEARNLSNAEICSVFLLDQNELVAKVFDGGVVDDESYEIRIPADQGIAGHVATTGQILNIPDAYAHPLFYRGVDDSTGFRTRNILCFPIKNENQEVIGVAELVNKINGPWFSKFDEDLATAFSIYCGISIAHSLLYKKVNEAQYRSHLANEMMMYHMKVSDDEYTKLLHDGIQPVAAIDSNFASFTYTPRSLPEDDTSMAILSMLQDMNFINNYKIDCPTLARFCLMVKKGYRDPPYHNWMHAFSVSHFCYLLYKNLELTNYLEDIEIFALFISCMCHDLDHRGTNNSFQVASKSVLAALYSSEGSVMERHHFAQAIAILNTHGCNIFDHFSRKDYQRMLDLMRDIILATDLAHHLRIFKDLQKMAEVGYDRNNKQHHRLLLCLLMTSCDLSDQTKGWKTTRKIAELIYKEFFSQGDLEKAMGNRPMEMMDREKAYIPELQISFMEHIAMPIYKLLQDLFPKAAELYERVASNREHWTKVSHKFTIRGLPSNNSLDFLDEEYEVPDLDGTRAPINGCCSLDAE

For Cc1cc(N[C@@H](c2ccc(C(F)(F)F)c(F)c2)C2CC2)n2ncnc2n1 [Example 39, N-{(R)-Cyclopropyl[3-fluoro-4-(trifluoromethyl)phenyl]methyl}-5-methyl[1,2,4]triazolo[1,5-a] pyrimidin-7-amine], the Ki was 49 nM.
In the case of Cc1cc(N[C@H](C)c2ccc(C3(C)CC3)cc2)n2ncnc2n1 [Example 15, 5-Methyl-N-{(1R)-1-[4-(1-methylcyclopropyl)phenyl]ethyl} [1,2,4]triazolo[1,5-a]pyrimidin-7-amine], the Ki is reported as 173 nM.
Cc1cc(NC(c2ccc(OC(F)(F)F)cc2F)C(C)(C)O)n2nc(N)nc2n1 (stereo in doubt) [Example 258, (1S)-1-[(2-Amino-5-methyl[1,2,4]triazolo[1,5-a]pyrimidin-7-yl)amino]-1-[2-fluoro-4-(trifluoromethoxy)phenyl]-2-methylpropan-2-ol] showed a Ki of 6 nM.
Cc1cc(N[C@@H](c2ccc(C(F)(F)F)cc2)C(C)(C)C)n2ncnc2n1 [Example 26, N-{(1R)-2,2-Dimethyl-1-[4-(trifluoromethyl)phenyl]propyl}-5-methyl[1,2,4]triazolo[1,5-a] pyrimidin-7-amine] gave a Ki of 11 nM.
For OCc1cc(NC2(c3ccc(C(F)(F)F)c(F)c3)CC2)n2ncnc2n1 [Example 78, [7-({1-[3-Fluoro-4-(trifluoromethyl)phenyl]cyclopropyl}amino)[1,2,4]triazolo[1,5-a]pyrimidin-5-yl]methanol], the Ki was 92 nM.
CC(C)(C)c1cc(NC(c2ccc(OC(F)(F)F)cc2F)C(C)(C)O)n2ncnc2n1 (single isomer, unassigned) [Example 149, (1R or S)-1-[(5-tert-butyl[1,2,4]triazolo[1,5-a]pyrimidin-7-yl)amino]-1-[2-fluoro-4-(trifluoro-methoxy)phenyl]-2-methylpropan-2-ol] was tested, and the Ki was > 2960 nM.
COCc1cc(N[C@H](C)c2ccc(C(F)(F)F)c(F)c2)n2ncnc2n1 [Example 77, N-{(1R)-1-[3-Fluoro-4-(trifluoromethyl)phenyl]ethyl}-5-(methoxymethyl)[1,2,4]triazolo [1,5-a]pyrimidin-7-amine] gave a Ki of ~1180 nM.
For Cc1cc(N[C@H](c2ccc(F)c(OC(F)(F)F)c2)C(C)(C)O)n2ncnc2n1 [Example 131, (1R)-1-[4-Fluoro-3-(trifluoro-methoxy)phenyl]-2-methyl-1-[(5-methyl[1,2,4]triazolo[1,5-a]pyrimidin-7-yl)amino]propan-2-ol], the Ki was > 2960 nM.
Cc1cc(N[C@@H](c2ccc(OC(F)F)cc2)C(C)(C)C)n2ncnc2n1 [Example 33, N-{(1R)-1-[4-(Difluoromethoxy)phenyl]-2,2-dimethylpropyl}-5-methyl[1,2,4]triazolo[1,5-a] pyrimidin-7-amine] gave a Ki of 17 nM.
For CC(C)(O)C(Nc1cc(C(F)F)nc2ncnn12)c1ccc(OC(F)F)cc1Cl (single isomer, unassigned) [Example 184, (1R or S)-[2-Chloro-4-(difluoromethoxy)phenyl]-1-{[5-(difluoromethyl) [1,2,4]triazolo [1,5-a]pyrimidin-7-yl]amino}-2-methylpropan-2-ol], the Ki was 68 nM.
For FS(F)(F)(F)(F)c1ccc(C2(Nc3cc(C4CC4)nc4ncnn34)CC2)cc1 [Example 72, 5-Cyclopropyl-N-{1-[4-(pentafluoro-λ^6-sulfanyl)phenyl]cyclopropyl}[1,2,4] triazolo[1,5-a]pyrimidin-7-amine], the Ki was 26 nM.
Cc1cc(NC2(c3ccc(C(F)(F)F)c(F)c3)CC2)n2ncnc2c1 [Example 263, N-(1-(3-Fluoro-4-(trifluoromethyl)phenyl)cyclopropyl)-7-methyl-[1,2,4]triazolo[1,5-a]pyridin-5-amine] was tested, and the Ki was 101 nM.
With CC(C)(O)[C@@H](Nc1cc(C(F)F)cc2ncnn12)c1ccc(C(F)(F)F)cc1 [Example 280, (1S)-1-{[7-(Difluoromethyl) [1,2,4]triazolo[1,5-a]pyridin-5-yl]amino}-1-[4-(trifluoromethyl)phenyl]-2-methylpropan-2-ol] the Ki was 20 nM.
With COCC(Nc1cc(C)nc2ncnn12)c1ccc(C(F)(F)F)c(F)c1 (single isomer, unassigned) [Example 209, (R)- or (S)-N-(1-(3-Fluoro-4-(trifluoromethyl)phenyl)-2-methoxyethyl)-5-methyl-[1,2,4]triazolo [1,5-a]pyrimidin-7-amine] the Ki was > 2960 nM.
In the case of OCc1cc(NC2(c3ccc(C(F)(F)F)cc3F)CC2)n2ncnc2c1 [Example 270, [5-({1-[2-Fluoro-4-(trifluoromethyl)phenyl]cyclopropyl}amino)[1,2,4]triazolo[1,5-a]pyridin-7-yl] methanol], the Ki is reported as 101 nM.
Cc1cc(NC(c2ccc(CC(F)(F)F)cc2)C(C)(C)O)n2ncnc2n1 (single isomer, unassigned) [Example 119, (1R or S)-2-Methyl-1-[(5-methyl [1,2,4]triazolo [1,5-a]pyrimidin-7-yl)amino]-1-[4-(2,2,2-trifluoroethyl)phenyl]propan-2-ol] showed a Ki of 15 nM.
Cc1cc(N[C@H](C)c2ccc(C3CC3)c(F)c2)n2ncnc2n1 [Example 14, N-[(1R)-1-(4-Cyclopropyl-3-fluorophenyl)ethyl]-5-methyl[1,2,4]triazolo[1,5-a] pyrimidin-7-amine] was tested, and the Ki was 48 nM.
In the case of CC[C@@H](Nc1cc(C)nc2ncnn12)c1ccc(SC(F)(F)F)c(F)c1 [Example 18, N-[(1R)-1-{3-Fluoro-4-[(trifluoromethyl)sulfanyl]phenyl}propyl]-5-methyl[1,2,4]triazolo[1,5-a]pyrimidin-7-amine], the Ki is reported as 15 nM.
With CC(C)(O)C(Nc1cc(C(F)(F)F)nc2ncnn12)c1ccc(C(F)F)cc1 (single isomer, unassigned) [Example 164, (1R or S)-1-[4-(Difluoromethyl)phenyl]-2-methyl-1-{[5-(trifluoromethyl) [1,2,4]triazolo [1,5-a]pyrimidin-7-yl]amino} propan-2-ol] the Ki was > 2960 nM.
With CC(C)(O)C(Nc1cc(Cl)nc2ncnn12)c1ccc(C(F)(F)F)c(F)c1 (single isomer, unassigned) [Example 223, (R)- or (S)-1-(5-Chloro-[1,2,4]triazolo [1,5-a]pyrimidin-7-ylamino)-1-(3-fluoro-4-(trifluoromethyl)phenyl)-2-methylpropan-2-ol] the Ki was 1.1 nM.
With Cc1cc(NC2(c3ccc(SC(F)(F)F)cc3)CC2)n2ncnc2n1 [Example 59, 5-Methyl-N-(1-{4-[(trifluoromethyl)sulfanyl]phenyl}cyclopropyl)[1,2,4]triazolo [1,5-a]pyrimidin-7-amine] the Ki was 72 nM.
In the case of CC(C)(O)C(Nc1cc(C(F)(F)F)nc2ncnn12)c1ccc(C(F)(F)F)c(F)c1 (single isomer, unassigned) [Example 213, (S)- or (R)-1-(3-Fluoro-4-(trifluoromethyl)phenyl)-2-methyl-1-(5-(trifluoromethyl)-[1,2,4]triazolo [1,5-a]pyrimidin-7-ylamino)propan-2-ol], the Ki is reported as > 2960 nM.
Work on Cc1cc(N[C@@H](c2ccc(OC(F)(F)F)cc2)C(C)(C)C)n2ncnc2n1 [Example 32, N-{(1R)-2,2-Dimethyl-1-[4-(trifluoromethoxy)phenyl]propyl}-5-methyl[1,2,4]triazolo[1,5-a] pyrimidin-7-amine] yielded a Ki of 6.6 nM.
FS(F)(F)(F)(F)c1ccc(C2(Nc3cncc4ncnn34)CC2)cc1 [Example 290, N-{1-[4-(Pentafluoro-λ^6-sulfanyl)phenyl]cyclopropyl} [1,2,4]triazolo[1,5-a]pyrazin-5-amine] was tested, and the Ki was 90 nM.
In the case of CC(C)c1cc(NC(c2ccc(OC(F)(F)F)cc2F)C(C)(C)O)n2ncnc2n1 (single isomer, unassigned) [Example 136, (1S or R)-1-[2-Fluoro-4-(trifluoro-methoxy)phenyl]-2-methyl-1-{[5-(1-methylethyl) [1,2,4]triazolo [1,5-a]pyrimidin-7-yl]amino} propan-2-ol], the Ki is reported as > 2960 nM.
Cc1cc(NC(C)(C)c2ccc(OC(F)(F)F)cc2F)n2ncnc2n1 [Example 51, N-{1-[2-Fluoro-4-(trifluoromethoxy)phenyl]-1-methylethyl}-5-methyl [1,2,4]triazolo[1,5-a]pyrimidin-7-amine] was tested, and the Ki was 206 nM.
Work on Cc1cc(N[C@H](C)c2ccc(OC(F)(F)F)c(Cl)c2)n2ncnc2n1 [Example 9, N-{(1R)-1-[3-Chloro-4-(trifluoromethoxy)phenyl]ethyl}-5-methyl[1,2,4]triazolo[1,5-a] pyrimidin-7-amine] yielded a Ki of 138 nM.
Cc1cc(N[C@@H](c2ccc(C3CC3)c(F)c2)C2CC2)n2ncnc2n1 [Example 38, N-[(R)-Cyclopropyl(4-cyclopropyl-3-fluorophenyl)methyl]-5-methyl[1,2,4]triazolo[1,5-a] pyrimidin-7-amine] showed a Ki of 20 nM.
Work on Cc1cc(N[C@@H](c2ccc(C(F)(F)F)c(F)c2)C(C)(C)C)n2nc(CF)nc2n1 [Example 191, 2-(Fluoromethyl)-N-{(1R)-1-[3-fluoro-4-(trifluoromethyl)phenyl]-2,2-dimethylpropyl}-5-methyl[1,2,4]triazolo[1,5-a]pyrimidin-7-amine] yielded a Ki of 67 nM.
Fc1cc(C2(Nc3cc(C(F)F)cc4ncnn34)CC2)ccc1C(F)(F)F [Example 274, 7-(Difluoromethyl)-N-(1-(3-fluoro-4-(trifluoromethy)phenyl)cyclopropyl)-[1,2,4]triazol-[1,5-a]pyridin-5-amine] showed a Ki of 11 nM.
With Cc1cc(NC(c2ccc(OC(F)(F)F)cc2F)C(C)(C)O)n2nc(C)nc2n1 (single isomer, unassigned) [Example 135, (1R or S)-1-[(2,5-Dimethyl[1,2,4]triazolo[1,5-a]pyrimidin-7-yl)amino]-1-[2-fluoro-4-(tri-fluoromethoxy)phenyl]-2-methylpropan-2-ol] the Ki was 30 nM.
Molecule C[C@H](Nc1cc(CO)cc2ncnn12)c1ccc(C(F)(F)F)cc1 [Example 268, [5-({(1S)-1-[4-(Trifluoromethyl)phenyl]ethyl}amino)[1,2,4]triazolo[1,5-a]pyridin-7-yl] methanol] has a Ki of 2080 nM.

From patent US10357481B2 (MERCK SHARP & DOHME CORP., priority 2015, dated 2019)
